# Like-named read-outs stand apart in the source and are kept apart here.
# Key:
# [1] = target: T1, serotonin 5-HT1A receptor (Rattus norvegicus, UniProt P19327); test: in vitro affinity for brain serotonin 5-HT1A receptor sites, 8-OH-DPAT; conditions: non-pretreated, read-out: In vitro binding Ki 5HT1A
# T1 construct: from tissue
# T1 sequence (P19327 1-422): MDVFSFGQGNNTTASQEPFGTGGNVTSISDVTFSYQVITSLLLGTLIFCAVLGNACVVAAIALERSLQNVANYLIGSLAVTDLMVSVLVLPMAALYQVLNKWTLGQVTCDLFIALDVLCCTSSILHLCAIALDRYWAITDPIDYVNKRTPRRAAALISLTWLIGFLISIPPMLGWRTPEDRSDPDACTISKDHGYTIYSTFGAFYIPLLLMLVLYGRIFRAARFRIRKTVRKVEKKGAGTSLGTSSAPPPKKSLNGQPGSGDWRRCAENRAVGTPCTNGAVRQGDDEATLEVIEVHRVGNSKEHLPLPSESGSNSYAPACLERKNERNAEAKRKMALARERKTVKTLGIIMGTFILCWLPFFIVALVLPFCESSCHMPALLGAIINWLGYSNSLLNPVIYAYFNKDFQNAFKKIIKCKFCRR
# From the text: (§1) pretreated rats. Also shown are the in vitro affinities for brain
# (§2) dopamine (D2, Spiperone) and serotonin (5-HT1A, 8-OH-DPAT)
# (§3) receptor sites in non-pretreated rats.
# [2] = target: T2, dopamine D2 receptor (Rattus norvegicus, UniProt P61169); test: in vitro affinity for brain dopamine D2 receptor sites, Spiperone; type: binding; conditions: non-pretreated
# T2 construct: from tissue
# T2 sequence (P61169 whole entry): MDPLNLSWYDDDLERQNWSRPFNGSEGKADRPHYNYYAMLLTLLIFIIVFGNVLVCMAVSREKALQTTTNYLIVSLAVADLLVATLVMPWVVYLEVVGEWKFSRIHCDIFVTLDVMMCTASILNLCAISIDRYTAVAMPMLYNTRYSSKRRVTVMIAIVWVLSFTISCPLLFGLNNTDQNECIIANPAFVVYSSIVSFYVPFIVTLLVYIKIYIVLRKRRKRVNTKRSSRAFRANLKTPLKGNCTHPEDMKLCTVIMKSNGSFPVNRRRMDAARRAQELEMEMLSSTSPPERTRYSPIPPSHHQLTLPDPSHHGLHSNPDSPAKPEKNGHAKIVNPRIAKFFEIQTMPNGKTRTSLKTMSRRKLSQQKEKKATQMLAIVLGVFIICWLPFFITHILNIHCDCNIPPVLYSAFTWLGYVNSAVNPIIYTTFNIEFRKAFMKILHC
# From the text: as §1, §2, §3
# [3] = tested on: 5-HTP accumulation in the limbic forebrain (5-HT synthesis rate); test: 5-HTP accumulation in limbic forebrain of reserpine-pretreated rats; type: in vivo, rat
# Procedure: (§4) Effects on DOPA and 5-HTP accumulation in reserpine -
# (§5) The animals were pretreated with reserpine (5 mg/kg, s.c.) 18 hours before the experiment. Test drugs were administered and immediately thereafter the motron activity was measured in photocell motility boxes. The rats were injected with the decarboxylase inhibitor NSD 1015 (100 mg/kg, s.c.) and killed 30 minutes later. The accumulation of DOPA in the striatum, limbic and […] and that of 5-HTP in the limbic forebrain was taken as a measure of the DA and 5-HT synthesis rates, respectively. The accumulation of DOPA in the cortex area was taken as a measure of NA synthesis rate. […] The same theory is valid for 5-HT receptor agonists and antagonists. Dose-response curves were constructed for each compound (4-5 dose levels, n=4) and the half-maximal decrease (ED50) was calculated.
# (§6) P=partial decrease; maximal decrease was not reached at the highest dose (shown in brackets). The % decrease from control is also shown. NT=not tested. [drawing 4]
# [4] = tested on: DOPA accumulation in the striatum (DA synthesis rate); test: DOPA accumulation in striatum of reserpine-pretreated rats; type: in vivo, rat; conditions: for ED50: Rattus norvegicus, sc, 0.5 h, read-out: DOPA ED50 Stri.
# Procedure: as §4, §5, §6
# [5] = tested on: DOPA accumulation in the cortex (NA synthesis rate); test: DOPA accumulation in cortex of reserpine-pretreated rats; type: in vivo, rat; conditions: for ED50: Rattus norvegicus, sc, 0.5 h, read-out: DOPA ED50 Cortex. (I/P symbol); for DOPA ED50 Cortex. (I/P symbol): s.c., number in brackets = highest dose, μmol/kg
# Procedure: as §4, §5, §6
# [6] = target: T3, dopamine D2 receptor (D2CHO cells) (Homo sapiens, UniProt P14416); test: binding experiments using D2CHO cells and Raclopride as the labeled ligand
# T3 construct: expressed in transfected cells; host or cells: CHO cells (D2CHO)
# T3 sequence (P14416 whole entry): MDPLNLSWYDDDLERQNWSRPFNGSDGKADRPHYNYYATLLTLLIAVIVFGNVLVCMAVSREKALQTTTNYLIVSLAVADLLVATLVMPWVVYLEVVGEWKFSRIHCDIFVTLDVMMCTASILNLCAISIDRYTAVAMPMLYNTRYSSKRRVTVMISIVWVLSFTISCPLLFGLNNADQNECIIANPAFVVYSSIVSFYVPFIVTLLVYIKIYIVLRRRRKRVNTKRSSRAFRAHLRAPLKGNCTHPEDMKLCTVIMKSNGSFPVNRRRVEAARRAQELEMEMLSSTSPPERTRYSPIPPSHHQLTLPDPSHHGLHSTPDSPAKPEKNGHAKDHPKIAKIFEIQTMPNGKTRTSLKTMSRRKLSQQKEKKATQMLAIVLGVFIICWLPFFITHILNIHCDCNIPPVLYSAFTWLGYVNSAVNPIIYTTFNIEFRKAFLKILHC
# From the text: *Data from binding experiments using D2CHO cells and Raclopride as the […]
# [7] = read-out: In vitro binding Ki D2-spip.
# [8] = Rattus norvegicus, sc, 0.5 h, read-out: 5-HTP ED50 Limbic (I/P symbol)
# [9] = D2CHO cells, Raclopride as labeled ligand, read-out: In vitro binding Ki D2 (marked *)
smiles,measurement,setting,value
"CCCN(CCC)C1CCc2c(ccc3c2NC(=O)C3)C1 (stereo not drawn) [Example 4, 7-Di-n-propylamino-1,3,6,7,8,9-hexahydro-1H-benzo[g]indole-2-one]",Ki,[1],25300 nM
same,Ki,[2]; [7],15900 nM
same,ED50,"[3]; Rattus norvegicus, sc, 0.5 h, s.c., half-maximal decrease, reserpine-pretreated rats, read-out: 5-HTP ED50 Limbic",5.8 µmol/kg
"CCCN(CCC)C1CCc2c(ccc3[nH]cc(C=O)c23)C1 (single isomer, unassigned; (+)) [8(+), (+)-7-Dipropylamino-6,7,8,9-tetrahydro-3H-benzo[e]indole-1-carbaldehyde]",ED50,[3]; [8],0.2 µmol/kg
same,DOPA Stri. % decrease from control,[4]; highest dose 0.2 μmol/kg s.c.,60%
same,ED50,[5],0.2 µmol/kg
"CCCN(CCC)C1CCc2cc3[nH]ccc3cc2C1 (stereo not drawn) [Example 7, Di-n-propyl-(5,6,7,8-tetrahydro-1H-benzo[f]indol-6-yl)amine]",Ki,[1],340 nM
same,Ki,[2]; [7],4200 nM
same,ED50,[3]; [8],50 µmol/kg
same,DOPA Stri. % decrease from control,[4]; highest dose 50 μmol/kg s.c.,48%
"CCCN(CCC)C1COc2c(ccc3cc[nH]c23)C1 (stereo not drawn) [Example 5, Di-n-propyl-(1,6,7,8-tetrahydro-9-oxa-1-azacyclopenta[a]naphthylenee-7-yl)amine]",Ki,[1],178 nM
same,Ki,[2]; [7],270 nM
same,5-HTP Limbic % decrease from control,[3]; highest dose 50 μmol/kg s.c.,62%
same,DOPA Stri. % decrease from control,[4]; highest dose 3.1 μmol/kg s.c.,26%
same,DOPA ED50 Cortex. (I/P symbol),[5],I(50)
"CCCN(CCC)C1CCc2cc3[nH]cc(C=O)c3cc2C1 (stereo not drawn) [Example 9, 6-Di-n-propylamino-5,6,7,8-tetrahydro-1H-benzo [f]indole-3-carbaldehyde]",Ki,[6]; [9],278 nM
same,ED50,[3]; [8],12.5 µmol/kg
same,DOPA Stri. % decrease from control,[4]; highest dose 12.5 μmol/kg s.c.,37%
same,DOPA Cortex. % decrease from control,[5]; highest dose 12.5 μmol/kg s.c.,85%
"CCCN(CCC)C1CCc2c(ccc3[nH]cc(C=O)c23)C1 (stereo not drawn) [Example 8, 7-Di-n-propylamino-6,7,8,9-tetrahydro-3H-benzo [e]indole-1-carbaldehyde]",Ki,[1],2600 nM
same,Ki,[2]; In vitro binding Ki D2-spip.,16 nM
same,ED50,[3]; [8],50 µmol/kg
same,ED50,[4],0.015 µmol/kg
same,DOPA Cortex. % decrease from control,[5]; highest dose 0.2 μmol/kg s.c.,57%
"CCCN(CCC)C1CCc2c(ccc3[nH]ccc23)C1 (stereo not drawn) [Example 7A, Di-n-propyl-(6,7,8,9-tetrahydro-3H-benzo[e]indol-7-yl)amine, reference compound]",Ki,[1],500 nM
same,Ki,[2]; In vitro binding Ki D2-spip.,50 nM
same,5-HTP Limbic % decrease from control,[3]; highest dose 3.1 μmol/kg s.c.,72%
same,ED50,[4],0.3 µmol/kg
same,ED50,[5],12.5 µmol/kg
"CCCN(CCC)C1CCc2c(ccc3[nH]cc(C#N)c23)C1 (stereo not drawn) [Example 10, 7-Di-n-propylamino-6,7,8,9-tetrahydro-3H-benzo[e]indole-1-carbonitrile]",Ki,[6],10.1 nM
same,ED50,[3]; [8],3.1 µmol/kg
same,ED50,[4],0.004 µmol/kg
same,DOPA Cortex. % decrease from control,[5]; highest dose 3.1 μmol/kg s.c.,79%
"CCCN(CCC)[C@H]1CCc2c(ccc3[nH]cc(C=O)c23)[C@H]1C (relative stereo) [Example 16, cis-7-Dipropylamino-6-methyl-6,7,8,9-tetrahydro-3H-benzo[e]-indole-1-carbaldehyde]",Ki,[6]; [9],924 nM
same,ED50,[3]; [8],50 µmol/kg
same,DOPA Stri. % decrease from control,[4]; highest dose 50 μmol/kg s.c.,36%
same,DOPA ED50 Cortex. (I/P symbol),[5],I(50)
"CCCN(CCC)C1CCc2c(ccc3ccoc23)C1 (stereo not drawn) [Example 17, Di-n-propyl-(6,7,8,9-tetrahydronaphtho[1,2-b]furan-7-yl)-amine]",Ki,[6],205 nM
same,ED50,[3]; [8],33.3 µmol/kg
same,ED50,[4],1 µmol/kg
same,DOPA Cortex. % decrease from control,[5]; highest dose 33.3 μmol/kg s.c.,79%
"CCCN(CCC)C1CCc2c(ccc3[nH]ccc23)C1 (single isomer, unassigned; (-)) [7A(-), (-)-Dipropyl-(6,7,8,9-tetrahydro-benzo[e]indol-7-yl)-amine, reference compound]",Ki,[1],1450 nM
same,Ki,[2]; [7],257 nM
same,5-HTP Limbic % decrease from control,[3]; highest dose 25 μmol/kg s.c.,68%
same,DOPA Stri. % decrease from control,[4]; highest dose 25 μmol/kg s.c.,31%
same,DOPA Cortex. % decrease from control,[5]; highest dose 25 μmol/kg s.c.,73%
"CCCN(CCC)C1CCc2c(ccc3c2NC(=O)C3=O)C1 (stereo not drawn) [Example 1, 7-Di-n-propylamino-6,7,8,9-tetrahydro-1H-benzo[g]indole-2,3-dione]",Ki,[6]; [9],3520 nM
same,Ki,[1],9930 nM
same,highest dose tested (ED50 not reached),"[3]; Rattus norvegicus, sc, 0.5 h, s.c., number in brackets = highest dose, μmol/kg, read-out: 5-HTP ED50 Limbic (I/P symbol)",50 µmol/kg
same,DOPA Stri. % decrease from control,[4]; highest dose 50 μmol/kg s.c.,78%
"CCCN(CCC)[C@H]1CCc2c(ccc3[nH]ccc23)[C@H]1C (relative stereo) [Example 15, cis-(6-Methyl-6,7,8,9-tetrahydro-3H-benzo[e]-indol-7-yl)-dipropylamine]",Ki,[6]; [9],164 nM
same,Ki,[1],124 nM
same,5-HTP Limbic % decrease from control,[3]; highest dose 50 μmol/kg s.c.,52%
same,DOPA Stri. % decrease from control,[4]; highest dose 50 μmol/kg s.c.,35%
same,DOPA Cortex. % decrease from control,[5]; highest dose 50 μmol/kg s.c.,88%
"CCCN(CCC)C1CCc2c(ccc3cc[nH]c23)C1 (stereo not drawn) [Example 2, Di-n-propyl-(6,7,8,9-tetrahydro-1H-benzo[g]indol-7yl)amine]",Ki,[1],1120 nM
same,Ki,[2]; [7],320 nM
same,5-HTP Limbic % decrease from control,[3]; highest dose 50 μmol/kg s.c.,61%
same,DOPA Stri. % decrease from control,[4]; highest dose 50 μmol/kg s.c.,48%
"CCCN(CCC)C1CCc2c(ccc3[nH]ccc23)C1 (single isomer, unassigned; (+)) [7A(+), (+)-Dipropyl-(6,7,8,9-tetrahydro-benzo[e]indol-7-yl)-amine, reference compound]",Ki,[2]; In vitro binding Ki D2-spip.,35 nM
same,5-HTP Limbic % decrease from control,[3]; highest dose 12.5 μmol/kg s.c.,80%
same,ED50,[4],0.12 µmol/kg
same,DOPA Cortex. % decrease from control,[5]; highest dose 12.5 μmol/kg s.c.,67%

# From patent publication US5639778A, “Indoletetralins having dopaminergic activity” (Pharmacia & Upjohn Company, priority 1995, dated 1997)
